Reference: publication PMC3481155, “AhR activation underlies the CYP1A autoinduction by A-998679 in rats” (Frontiers in Genetics, 2012)

How the values were obtained:
rat Cyp1a2 = target: T1, rat Cyp1a2 (Rattus norvegicus, UniProt P04799); assay: Recombinant rat Cyp phenotype profiling, 1A2; format: in vitro ADME; settings: 60 min
T1 construct: purchased BD Gentest; host or cells: baculovirus infected insect cells
Protocol: (§1) Identification of the drug metabolizing enzymes (DMEs) of A-998679 was studied in cDNA expressed recombinant enzymes prepared from baculovirus infected insect cells over-expressing rat Cyp isoforms (BD Gentest, Woburn, MA) as listed in Table 2. Incubations were conducted in duplicate using Supersomes. The incubation mixture contained 100 pmol/ml of enzymes, except for Cyp1a1 (200 pmol/ml), 0.1 or 0.21 μM of [^3H]A-998679 in 100 mM phosphate buffer (pH 7.4). Reactions were initiated with the addition of NADPH at a final concentration of 1 mM and incubated at 37°C for 60 min. At the end of the incubation period, the incubations were terminated by the addition of acetonitrile/ethanol (50/50, v/v) solution. Insect control samples lacking expressed enzyme were used as negative control. The degree of metabolism of A-998679 was assessed by percent of parent remaining using the radio-HPLC method described below.
(§2) Radiolabeled components from the above assays were profiled following separation by HPLC with on line radioflow detector. The system consisted of an Agilent 1100 Series quaternary pump and autosampler connected to a Packard 500TR flow scintillation detector. The data were processed using the Radiomatic™ Flo-one® software v3.65. The scintillant (Perkin Elmer FLO-SCINT™ III) flow was maintained at 3 ml/min. […]

rat Cyp2b1 = target: T2, rat Cyp2b1 (Rattus norvegicus, UniProt P00176); assay: Recombinant rat Cyp phenotype profiling, 2B1; format: in vitro ADME; settings: 60 min
T2 construct: purchased BD Gentest; host or cells: baculovirus infected insect cells
Protocol: as §1, §2

[1] = test system: multidrug resistance-associated protein (Mrp3); assay: Mrp3 expression in rat liver; format: in vivo; settings: treated rats; data not shown
Protocol: All animal experiments were conducted in accordance with the Guiding Principles in the Use of Animals in Toxicology (http://www.toxicology.org/ai/air/air6.asp) and were approved by Abbott's Institutional Animal Care and Use Committee (IACUC). Male Sprague-Dawley rats [Crl:CD®(SD)IGS BR], weighing ~250 g at study initiation were obtained from Charles River Laboratories, Inc. (Wilmington, MA). Rats were housed singly in ventilated, stainless steel, wire-bottom hanging cages and fed non-certified Rodent Chow (Harlan Labs, Madison, WI), and water ad libitum and acclimated for at least 5 days after arrival. […] Serum clinical chemistry parameters were quantified using an Aeroset Clinical Chemistry Analyzer (Abbott Laboratories, Abbott Park, IL) and included alanine amino transferase (ALT), aspartate amino transferase (AST), gamma glutamyltransferase (GGT), and alkaline phosphatase (ALP) activities.
Frozen liver or jejunum were immediately added to 4 ml of TRIzol reagent (Invitrogen Life Technologies) and homogenized using a Polytron 300D homogenizer (Brinkman Instruments, Westbury, NY). […] Nucleic acid concentration was determined by OD 260 nm (Smart-Spec, Bio-Rad Laboratories, Hercules, CA), and RNA integrity was evaluated using an Agilent 2100 bioanalyzer (Agilent Technologies, Foster City, CA). […]

T1 sequence (P04799 whole entry): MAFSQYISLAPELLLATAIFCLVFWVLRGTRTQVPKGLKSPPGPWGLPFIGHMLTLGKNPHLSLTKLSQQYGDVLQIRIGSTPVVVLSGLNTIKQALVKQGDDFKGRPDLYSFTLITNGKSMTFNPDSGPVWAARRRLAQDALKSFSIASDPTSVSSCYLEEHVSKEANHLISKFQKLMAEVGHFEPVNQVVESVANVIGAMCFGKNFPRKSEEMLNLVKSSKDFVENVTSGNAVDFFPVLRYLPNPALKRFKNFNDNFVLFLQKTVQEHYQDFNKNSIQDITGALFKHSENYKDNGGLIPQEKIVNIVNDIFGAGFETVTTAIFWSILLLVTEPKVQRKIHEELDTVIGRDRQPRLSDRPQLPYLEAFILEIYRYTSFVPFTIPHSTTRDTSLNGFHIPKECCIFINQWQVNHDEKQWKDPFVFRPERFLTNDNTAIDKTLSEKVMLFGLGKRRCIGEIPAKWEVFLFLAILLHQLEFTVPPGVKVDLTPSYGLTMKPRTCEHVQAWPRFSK
T2 sequence (P00176 whole entry): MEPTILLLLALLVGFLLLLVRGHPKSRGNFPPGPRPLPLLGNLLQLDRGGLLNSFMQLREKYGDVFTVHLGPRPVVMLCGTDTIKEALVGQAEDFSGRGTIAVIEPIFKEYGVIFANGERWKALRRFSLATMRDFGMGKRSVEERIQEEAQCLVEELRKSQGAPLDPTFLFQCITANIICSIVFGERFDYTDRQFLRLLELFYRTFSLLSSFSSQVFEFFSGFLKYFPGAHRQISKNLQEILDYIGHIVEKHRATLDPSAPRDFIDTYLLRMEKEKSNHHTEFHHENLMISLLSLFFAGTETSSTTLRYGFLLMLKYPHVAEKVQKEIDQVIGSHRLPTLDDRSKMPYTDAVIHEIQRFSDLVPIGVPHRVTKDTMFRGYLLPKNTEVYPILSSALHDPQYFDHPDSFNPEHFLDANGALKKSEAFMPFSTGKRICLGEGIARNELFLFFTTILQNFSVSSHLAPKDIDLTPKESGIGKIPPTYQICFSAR

- % parent remaining (rat Cyp1a2; recombinant rat Cyp 1A2, 0.10 μM): 0%
- % parent remaining (rat Cyp1a2; recombinant rat Cyp 1A2, 0.21 μM): 0%
- % parent remaining (rat Cyp2b1; recombinant rat Cyp 2B1, 0.10 μM): 87.0%
- % parent remaining (rat Cyp2b1; recombinant rat Cyp 2B1, 0.21 μM): 34.5%
Compound: N#Cc1cccc(-c2noc(-c3cccnc3)n2)c1 [A-998679, 3-(5-pyridin-3-yl-1,2,4-oxadiazol-3-yl) benzonitrile]
- expression of Mrp3 in liver [1]: increased expression
